Patent US20040127549A1, “Cyclic 2-carbonylaminoketones as inhibitors of cruzipain and other cysteine proteases” (priority 2001, published 2004)
pKi: −log10 of the molar value.

Columns and labels:
Human Cathepsin L = biological target: T1, Human Cathepsin L (Homo sapiens, UniProt P07711); assay: Cathepsin peptidase activity assay (Ki), human cathepsin L; assay type: biochemical; conditions: pH 6.5, 25±1° C.
T1 construct: purchased CN Biosciences
Description: (§1) Assay protocols were based on literature precedent (Tablel; Barrett, A. J., Rawlings, N. D. and Woessner, J. F., 1998, Handbook of Proteolytic Enzymes, Academic Press, London and references therein) and modified as required to suit local assay protocols. Enzyme was added as required to initiate the reaction and the activity, as judged by the change in fluorescence upon conversion of substrate to product, was monitored over time. All assays were carried out at 25±1° C.
(§2) Bovine cathepsin S, human cathepsin L, human cathepsin H and human cathepsin B were obtained from CN Biosciences. Recombinant human cathepsin S, human cathepsin K and human cathepsin X were obtained from Dr. Boris Turk (Josef Stefan Institute, Ljubljana, Slovenia). Unless otherwise stated, all peptidase activity assays were carried out in 10 mM bis-tris-propane (BTP), pH 6.5 containing 1 mM EDTA, 5 mM 2-mercaptoethanol and 1 mM CaCl2. Human cathepsin H activity assays were carried out in 10 mM BTP pH 6.5, 142 MM NaCl2 1 mM CaCl2, 1 mM EDTA, 1 mM DTr, 0.035 mM Zwittergent 3-16. […] The rate of conversion of substrate to product was derived from the slope of the increase in fluorescence monitored continuously over time.
(§3) The apparent inhibition constant (Ki) for each compound was determined on the basis that inhibition was reversible and occurred by a pure-competitive mechanism. The Ki values were calculated, from the dependence of enzyme activity as a function of inhibitor concentration, by direct regression analysis (Prism v 3.02) using Equation 2 (Cornish-Bowden, A., 1995.). […]
(§4) In situations where the apparent dissociation constant (Ki^app) approached the enzyme concentrations, the Ki^app values were calculated using a quadratic solution in the form described by Equation 3 (Morrison, J. F. Trends Biochem. Sci., 7, 102-105, 1982; Morrison, J. F. Biochim. Biophys. Acta, 185, 269-286, 1969; Stone, S.R. and Hofsteenge, J. Biochemistry, 25, 4622-4628, 1986). […]

Cruzipain = biological target: T2, Cruzipain (Trypanosoma cruzi, UniProt P25779); assay: Trypanosoma cruzi cruzipain peptidase activity assay (Ki); assay type: biochemical; conditions: wild-type cruzipain, pH 6.75, 25±1° C.
T2 construct: Wild-type cruzipain, derived from Trypanosoma cruzi Dm28 epimastigotes, was obtained from Dr. Julio Scharfstein; tissue Dr. Julio Scharfstein (Instituto de Biofisica Carlos Chagas Filho, Universidade Federal do Rio de Janeiro); host or cells: Trypanosoma cruzi Dm28 epimastigotes
Description: as §1
Wild-type cruzipain, derived from Trypanosoma cruzi Dm28 epimastigotes, was obtained from Dr. Julio Scharfstein (Instituto de Biofisica Carlos Chagas Filho, Universidade Federal do R10 de Janeiro, R10 de Janeiro, Brazil). Activity assays were carried out in 100 mM sodium phosphate, pH 6.75 containing 1 mM EDTA and 10 mM L-cysteine using 2.5 nM enzyme. Ac-Phe-Arg-AMC (KM^app≈12 1M) and D-Val-Leu-Lys-AMC (KM^app≈4 1M) were used as the substrates. Routinely, Ac-FR-AMC was used at a concentration equivalent to KM^app and D-Val-Leu-Lys-AMC was used at a concentration of 25 μM. The rate of conversion of substrate to product was derived from the slope of the increase in fluorescence monitored continuously over time.
as §3, with “1995.). [formula]” for “1995.).”
as §4

Human Cathepsin K = biological target: T3, Human Cathepsin K (Homo sapiens, UniProt P43235); assay: Cathepsin peptidase activity assay (Ki), human cathepsin K; assay type: biochemical; conditions: pH 5.5, 25±1° C.
T3 construct: purchased Dr. Boris Turk (Josef Stefan Institute, Ljubljana, Slovenia)
T3 sequence (P43235 115-329): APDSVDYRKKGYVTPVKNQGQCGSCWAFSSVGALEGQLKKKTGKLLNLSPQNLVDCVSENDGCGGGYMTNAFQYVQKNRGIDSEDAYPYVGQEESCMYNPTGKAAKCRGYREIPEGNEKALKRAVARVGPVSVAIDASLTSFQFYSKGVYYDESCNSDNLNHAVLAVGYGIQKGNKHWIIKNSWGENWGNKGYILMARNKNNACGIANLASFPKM
Description: as §1, §2, §3, §4

Bovine Cathepsin S = biological target: T4, Bovine Cathepsin S (Bos taurus, UniProt P25326); assay: Cathepsin peptidase activity assay (Ki), bovine cathepsin S; assay type: biochemical; conditions: pH 6.5, 25±1° C.
T4 construct: purchased CN Biosciences
Description: as §1, §2, §3, §4

[1] = tested on: Trypanosoma cruzi infection; conditions: acute phase of infection; cited from earlier work
[2] = tested on: Trypanosoma cruzi-infected mammalian cell cultures; conditions: addition to infected mammalian cell cultures; cited from earlier work

T1 sequence (P07711 114-333): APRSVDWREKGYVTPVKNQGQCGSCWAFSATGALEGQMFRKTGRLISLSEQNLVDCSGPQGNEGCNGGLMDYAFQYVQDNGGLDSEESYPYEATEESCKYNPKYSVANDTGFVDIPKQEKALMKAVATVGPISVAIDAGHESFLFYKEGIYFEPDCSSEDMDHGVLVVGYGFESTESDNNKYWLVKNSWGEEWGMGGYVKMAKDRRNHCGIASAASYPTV
T2 sequence (P25779 123-467): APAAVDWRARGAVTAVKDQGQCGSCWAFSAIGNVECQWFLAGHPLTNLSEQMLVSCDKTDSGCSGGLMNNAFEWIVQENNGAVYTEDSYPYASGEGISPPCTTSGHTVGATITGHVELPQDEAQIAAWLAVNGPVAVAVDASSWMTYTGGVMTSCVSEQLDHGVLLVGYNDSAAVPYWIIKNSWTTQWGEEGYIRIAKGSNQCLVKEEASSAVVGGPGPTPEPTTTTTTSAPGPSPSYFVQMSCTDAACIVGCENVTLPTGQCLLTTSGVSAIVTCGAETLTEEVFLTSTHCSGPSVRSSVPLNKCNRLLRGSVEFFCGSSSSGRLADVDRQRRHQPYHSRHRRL
T4 sequence (P25326 115-331): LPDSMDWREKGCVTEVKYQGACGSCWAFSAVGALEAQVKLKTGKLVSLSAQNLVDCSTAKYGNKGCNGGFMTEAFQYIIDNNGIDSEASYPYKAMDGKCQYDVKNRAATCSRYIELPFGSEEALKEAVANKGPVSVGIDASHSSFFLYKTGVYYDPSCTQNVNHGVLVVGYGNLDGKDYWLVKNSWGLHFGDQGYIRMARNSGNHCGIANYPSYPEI

Row | pKi (Human Cathepsin L) | pKi (Cruzipain) | pKi (Human Cathepsin K) | pKi (Bovine Cathepsin S) | Compound | cure [1] [%] | effect on parasite replication and differentiation [2]
1 | > 5.30 | < 4.70 | < 4.00 | < 4.30 | C[C@H]1OCC(=O)[C@]1(C)NC(=O)[C@H](Cc1ccc(O)cc1)NC(=O)c1cccc2ccccc12 [Example 27, (2R, 3R) Naphthalene-1-carboxylic acid [1-(2,3-dimethyl-4-oxo-tetrahydrofuran-3-ylcarbamoyl)-2-(4-hydroxyphenyl)-ethyl]-amide] | – | –
2 | < 4.30 | > 5.70 | < 4.00 | < 4.30 | C[C@H]1OCC(=O)[C@]1(C)NC(=O)[C@H](Cc1ccc(O)cc1)NC(=O)c1csc(-c2cccnc2)n1 [Example 6, (2R, 3R) 2-Pyridin-3-yl-thiazole4-carboxylic acid [1-(2,3-dimethyl-4oxo-tetrahydrofuran-3-ylcarbamoyl)-2-(4-hydroxyphenyl)-ethyl]-amide] | – | –
3 | < 4.30 | < 4.30 | < 4.30 | > 5.70 | C[C@H]1OCC(=O)[C@]1(C)NC(=O)[C@H](CC1CCCCC1)NC(=O)c1ccoc1 [Example 19, (2R, 3R) Furan-3-carboxylic acid [2-cyclohexyl-1-(2,3-dimethyl-oxo-tetrahydrofuran-3-ylcaxbamoyl)-ethyl]-amide] | – | –
4 | – | – | – | – | O=C(Cn1ccnc1[N+](=O)[O-])NCc1ccccc1 [benznidazole] | 60 | –
5 | – | – | – | – | CC(NC(=O)C(Cc1ccccc1)NC(=O)OCc1ccccc1)C(=O)CF (stereo not drawn) [Z-Phe-Ala-FMK] | – | blocked replication and differentiation of the parasite
